# In PubChem BioAssay AID1963979 (Molecular Pharmacology Branch, DTP, NCI, 2024):
# System: 361931-004-R-J1-PDC multicell spheroid viability
# Assay: Anticancer human tumor 361931-004-R-J1-PDC patient-derived colon adenocarcinoma cell line growth inhibition [PI3K]
# Settings: for IC50: curve of first compound; for viability, T/C: stronger effect = lower value
# Description: Combinatorial screen of targeted agents with the PI3K inhibitors inavolisib, alpelisib, duvelisib, and copanlisib in multi-cell type tumor spheroids
# A high-throughput screen of multi-cell type tumor spheroids was designed to identify active combinations of targeted small molecules and PI3K pathway inhibitors. Complex spheroids include a stromal component modeled by human endothelial cells (HUVEC) and fibroblasts modeled by human mesenchymal stem cells (MSCs). The concentration ranges selected for each drug and investigational agent were based upon clinically achievable concentrations if the clinical Cmax of the agent was known.
# Compounds. The drugs and investigational agents: inavolisib (NSC800729), alpelisib (NSC765974), duvelisib (NSC772469), copanlisib (NSC816437), ipatasertib (NSC767898), afuresertib (NSC778305), talazoparib (NSC767125), sapanisertib (NSC764658), selumetinib (NSC741078), tovorafenib (DAY101, NSC766906), vemurafenib (NSC761431), ravoxertinib (NSC781343), sotorasib (NSC818433), MRTX1133 (NSC 836407), abemaciclib (NSC 768073), palbociclib (NSC758247), venetoclax (NSC 766270), SY5609 (NSC837396), enzalutamide (NSC755605), and darolutamide (NSC825331), were obtained from the National Cancer Institute (NCI) Developmental Therapeutics Program Chemical Repository. The FDA-approved anticancer drug set is available from the NCI Developmental Therapeutics Program. […] The stock solutions were prepared in dimethyl sulfoxide (DMSO, Sigma-Aldrich, St. Louis, MO, cat. D2650) at 800-fold the tested concentration and stored at -70 degrees C prior to their use. All drugs and investigational agents were tested over a range starting from a high concentration at or near the clinical Cmax and decreasing in half-log increments. If the clinical Cmax for an agent had not been determined, the highest concentration tested was 10 microM.
# Cell Culture. All cells were maintained in an incubator at 37 degrees C and 5% CO2 with 95% humidity. The PDC lines were cultured according to standard operating procedures established by the NCI PDMR (https://pdmr.cancer.gov/sops/default.htm). All PDCs were thawed and cultured in Matrigel-coated flasks prepared with a working solution of 1X Ham's F-12 nutrient mix, without supplementation (Invitrogen, Waltham, MA, cat. 11765054), 100 U/mL penicillin-streptomycin (Invitrogen, cat. 15140122), and 2.5% Matrigel (Corning Inc., Corning, NY, cat. 354248) for the first three passages. The 354836-022-R-J1-PDC, 475296-252-R-J1-PDC, and 997726-040-R-J2-PDC lines were cultured in 6A media, which includes advanced DMEM/F-12 (Thermo Fisher Scientific, cat. 12634028), 10 mM HEPES (Thermo Fisher Scientific, cat. 15630080), 1X GlutaMAX supplement (Thermo Fisher Scientific, cat. 35050061), 0.1 mg/mL primocin (InvivoGen, San Diego, CA, cat. ant-pm-2), 10% defined fetal bovine serum, heat inactivated (HyClone Laboratories Inc., Logan, UT, cat. SH30070.03HI), 50% L-WRN conditioned media (ATCC, cat. CRL-3276), 1.25 mM N-Acetyl-L-cysteine (Sigma-Aldrich, cat. A9165), 10 mM nicotinamide (Sigma-Aldrich, cat. N0636), 1X B-27 supplement (Thermo Fisher Scientific, cat. 17504044), 1X N-2 supplement (Thermo Fisher Scientific, cat. 17502048), and 10 microM Y-27632 dihydrochloride (Tocris Bioscience, Bristol, United Kingdom, cat. 1254). The 624824-186-R-J2-PDC line was cultured in 6C/Colon 1B media, which includes all 6A media components plus 50 ng/mL human EGF recombinant protein (Thermo Fisher Scientific, cat. PHG0311). […]
# [1] = second compound 0.00316 µM, first compound 0.0316 µM
# [2] = second compound 0.00316 µM, first compound 0.1 µM
# [3] = second compound 0.01 µM, first compound 0.0316 µM
# [4] = second compound 0.01 µM, first compound 0.1 µM
# [5] = second compound 0.0316 µM, first compound 0.0316 µM
# [6] = second compound 0.0316 µM, first compound 0.1 µM
# [7] = second compound 0.1 µM, first compound 0.0316 µM
# [8] = second compound 0.1 µM, first compound 0.1 µM
# [9] = second compound 0.316 µM, first compound 0.0316 µM
# [10] = second compound 0.316 µM, first compound 0.1 µM
# [11] = second compound 1 µM, first compound 0.0316 µM
# [12] = second compound 1 µM, first compound 0.1 µM
# 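Also: spheroids exposed to agents for seven days before readout.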
compound,measurement,setting,value
Cn1nccc1Nc1nccc(-c2ccn(C(CO)c3ccc(Cl)c(F)c3)c(=O)c2)n1 (centres undefined) + CC(Nc1ccc2c(c1)OCCn1cc(N3C(=O)OCC3C(F)F)nc1-2)C(N)=O,IC50,second compound 0.00316 µM,8690 nM
same,IC50,second compound 0.01 µM,7800 nM
same,IC50,second compound 0.0316 µM,6080 nM
same,IC50,second compound 0.1 µM,3100 nM
same,IC50,second compound 0.316 µM,2310 nM
same,IC50,second compound 1 µM,1090 nM
same,"viability, T/C",[1],103%
same,"viability, T/C",[2],96.7%
same,"viability, T/C","second compound 0.00316 µM, first compound 0.316 µM",92.7%
same,"viability, T/C","second compound 0.00316 µM, first compound 1 µM",88.8%
same,"viability, T/C","second compound 0.00316 µM, first compound 3.16 µM",76.6%
same,"viability, T/C","second compound 0.00316 µM, first compound 10 µM",45.6%
same,"viability, T/C",[3],120%
same,"viability, T/C",[4],105%
same,"viability, T/C","second compound 0.01 µM, first compound 0.316 µM",93.9%
same,"viability, T/C","second compound 0.01 µM, first compound 1 µM",84.1%
same,"viability, T/C","second compound 0.01 µM, first compound 3.16 µM",76.5%
same,"viability, T/C","second compound 0.01 µM, first compound 10 µM",41.4%
same,"viability, T/C",[5],106%
same,"viability, T/C",[6],93%
same,"viability, T/C","second compound 0.0316 µM, first compound 0.316 µM",85.8%
same,"viability, T/C","second compound 0.0316 µM, first compound 1 µM",82.5%
same,"viability, T/C","second compound 0.0316 µM, first compound 3.16 µM",70.6%
same,"viability, T/C","second compound 0.0316 µM, first compound 10 µM",36%
same,"viability, T/C",[7],97.6%
same,"viability, T/C",[8],97.8%
same,"viability, T/C","second compound 0.1 µM, first compound 0.316 µM",89.3%
same,"viability, T/C","second compound 0.1 µM, first compound 1 µM",71.9%
same,"viability, T/C","second compound 0.1 µM, first compound 3.16 µM",50.5%
same,"viability, T/C","second compound 0.1 µM, first compound 10 µM",25.5%
same,"viability, T/C",[9],95.3%
same,"viability, T/C",[10],86.5%
same,"viability, T/C","second compound 0.316 µM, first compound 0.316 µM",77.8%
same,"viability, T/C","second compound 0.316 µM, first compound 1 µM",72.9%
same,"viability, T/C","second compound 0.316 µM, first compound 3.16 µM",40.7%
same,"viability, T/C","second compound 0.316 µM, first compound 10 µM",13.2%
same,"viability, T/C",[11],69.8%
same,"viability, T/C",[12],83.3%
same,"viability, T/C","second compound 1 µM, first compound 0.316 µM",70%
same,"viability, T/C","second compound 1 µM, first compound 1 µM",52.1%
same,"viability, T/C","second compound 1 µM, first compound 3.16 µM",22.8%
same,"viability, T/C","second compound 1 µM, first compound 10 µM",9.78%
Cn1ncnc1[C@H]1c2n[nH]c(=O)c3cc(F)cc(c23)N[C@@H]1c1ccc(F)cc1 + COc1c(OCCCN2CCOCC2)ccc2c3n(c(=NC(=O)c4cnc(N)nc4)nc12)CCN3,IC50,second compound 0.00316 µM,> 100 nM
same,IC50,second compound 0.01 µM,> 100 nM
same,IC50,second compound 0.0316 µM,> 100 nM
same,IC50,second compound 0.1 µM,> 100 nM
same,IC50,second compound 0.316 µM,1.1 nM
same,IC50,second compound 1 µM,< 0.316 nM
same,"viability, T/C","second compound 0.00316 µM, first compound 0.000316 µM",105%
same,"viability, T/C","second compound 0.00316 µM, first compound 0.001 µM",106%
same,"viability, T/C","second compound 0.00316 µM, first compound 0.00316 µM",97.9%
same,"viability, T/C","second compound 0.00316 µM, first compound 0.01 µM",98.2%
same,"viability, T/C",[1],101%
same,"viability, T/C",[2],87.8%
same,"viability, T/C","second compound 0.01 µM, first compound 0.000316 µM",91.1%
same,"viability, T/C","second compound 0.01 µM, first compound 0.001 µM",97.1%
same,"viability, T/C","second compound 0.01 µM, first compound 0.00316 µM",102%
same,"viability, T/C","second compound 0.01 µM, first compound 0.01 µM",93%
same,"viability, T/C",[3],91.5%
same,"viability, T/C",[4],84.9%
same,"viability, T/C","second compound 0.0316 µM, first compound 0.000316 µM",97%
same,"viability, T/C","second compound 0.0316 µM, first compound 0.001 µM",87%
same,"viability, T/C","second compound 0.0316 µM, first compound 0.00316 µM",90%
same,"viability, T/C","second compound 0.0316 µM, first compound 0.01 µM",82.7%
same,"viability, T/C",[5],87.3%
same,"viability, T/C",[6],77.9%
same,"viability, T/C","second compound 0.1 µM, first compound 0.000316 µM",81.7%
same,"viability, T/C","second compound 0.1 µM, first compound 0.001 µM",73.5%
same,"viability, T/C","second compound 0.1 µM, first compound 0.00316 µM",78.6%
same,"viability, T/C","second compound 0.1 µM, first compound 0.01 µM",72.4%
same,"viability, T/C",[7],80.3%
same,"viability, T/C",[8],64.7%
same,"viability, T/C","second compound 0.316 µM, first compound 0.000316 µM",50.5%
same,"viability, T/C","second compound 0.316 µM, first compound 0.001 µM",53.9%
same,"viability, T/C","second compound 0.316 µM, first compound 0.00316 µM",48.3%
same,"viability, T/C","second compound 0.316 µM, first compound 0.01 µM",41.5%
same,"viability, T/C",[9],41%
same,"viability, T/C",[10],39.2%
same,"viability, T/C","second compound 1 µM, first compound 0.000316 µM",15.9%
same,"viability, T/C","second compound 1 µM, first compound 0.001 µM",19.1%
same,"viability, T/C","second compound 1 µM, first compound 0.00316 µM",20.5%
same,"viability, T/C","second compound 1 µM, first compound 0.01 µM",19.7%
same,"viability, T/C",[11],16.3%
same,"viability, T/C",[12],17.6%
